In patent US8993574B2, “Pyrrole antifungal agents” (F2G Ltd, priority 2008, dated 2015):
In brackets after ≈: the same amount, converted by molar mass.

Columns and labels:
Type in all cases: cell-based
Aspergillus flavus [1] = experiment: MIC, YAG medium; conditions: 24 h at 35° C, MIC banded into grades; for MIC: Aspergillus flavus, 24 h, read-out: MIC grade, A. flavus
Procedure, shortened: (§1)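 Broth microdilution in YAG medium tests compound over 50-0.05 mg/L against spores at 1−2×10^4 cfu/mL. After 24 h incubation at 35° C, optical density at 485 nm gives growth, and the MIC is the lowest concentration reducing it by more than 70% relative to untreated control.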

[2] = test system: Aspergillus fumigatus AF210; experiment: MIC, YAG medium; conditions: 24 h at 35° C, MIC banded into grades; for MIC: Aspergillus fumigatus, read-out: MIC grade, A. fumigatus 210
Procedure, shortened: as §1

[3] = test system: Aspergillus fumigatus AF293; experiment: MIC, YAG medium; conditions: 24 h at 35° C, MIC banded into grades; for MIC: Aspergillus fumigatus, read-out: MIC grade, A. fumigatus
Procedure, shortened: as §1

Aspergillus niger [4] = experiment: MIC, YAG medium; conditions: 24 h at 35° C, MIC banded into grades; for MIC: Aspergillus niger, read-out: MIC grade, A. niger
Procedure, shortened: as §1

Aspergillus terreus AT49 [5] = experiment: MIC, YAG medium; conditions: 24 h at 35° C, MIC banded into grades; for MIC: Aspergillus terreus, read-out: MIC grade, A. terreus 49
Procedure, shortened: as §1

Aspergillus terreus AT4 [6] = experiment: MIC, YAG medium; conditions: 24 h at 35° C, MIC banded into grades; for MIC: Aspergillus terreus, read-out: MIC grade, A. terreus
Procedure, shortened: as §1

Aspergillus flavus [7] = experiment: MIC, RPMI medium; conditions: MIC banded into grades; for MIC: Aspergillus flavus, read-out: MIC grade, A. flavus
Procedure, shortened: (§2)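 Fungi are tested in RPMI buffered with 0.135 M MOPS (pH 7.0) plus 2% glucose, inoculum 1−2×10^4 cfu/mL, against doubling compound dilutions spanning 50-0.05 mg/L. After 24-48 h at 35° C, the MIC is the lowest concentration suppressing growth by >80% against drug-free control.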

[8] = test system: Aspergillus fumigatus AF210; experiment: MIC, RPMI medium; conditions: for MIC grade, A. fumigatus 210: MIC banded into grades; for MIC: Aspergillus fumigatus, AF210, MIC banded into grades, read-out: MIC grade, A. fumigatus 210
Procedure, shortened: as §2

[9] = test system: Aspergillus fumigatus AF293; experiment: MIC, RPMI medium; conditions: for MIC grade, A. fumigatus: MIC banded into grades; for MIC: Aspergillus fumigatus, AF293, MIC banded into grades, read-out: MIC grade, A. fumigatus
Procedure, shortened: as §2

Aspergillus niger [10] = experiment: MIC, RPMI medium; conditions: MIC banded into grades; for MIC: Aspergillus niger, read-out: MIC grade, A. niger
Procedure, shortened: as §2

Aspergillus terreus AT49 [11] = experiment: MIC, RPMI medium; conditions: for MIC grade, A. terreus 49: MIC banded into grades; for MIC: Aspergillus terreus, AT49, MIC banded into grades, read-out: MIC grade, A. terreus 49
Procedure, shortened: as §2

Aspergillus terreus AT4 [12] = experiment: MIC, RPMI medium; conditions: for MIC grade, A. terreus: MIC banded into grades; for MIC: Aspergillus terreus, AT4, MIC banded into grades, read-out: MIC grade, A. terreus
Procedure, shortened: as §2

Candida albicans = experiment: MIC, RPMI medium; conditions: 24-48 h at 35° C., >80% growth inhibition, banded into grades; for MIC: Candida albicans
Procedure, shortened: as §2

Candida glabrata = experiment: MIC, RPMI medium; conditions: 24-48 h at 35° C., >80% growth inhibition, banded into grades; for MIC: Nakaseomyces glabratus
Procedure, shortened: as §2

Candida krusei = experiment: MIC, RPMI medium; conditions: 24-48 h at 35° C., >80% growth inhibition, banded into grades; for MIC: Pichia kudriavzevii
Procedure, shortened: as §2

Candida parapsilosis = experiment: MIC, RPMI medium; conditions: 24-48 h at 35° C., >80% growth inhibition, banded into grades; for MIC: Lodderomyces parapsilosis
Procedure, shortened: as §2

Candida tropicalis = experiment: MIC, RPMI medium; conditions: 24-48 h at 35° C., >80% growth inhibition, banded into grades; for MIC: Candida tropicalis
Procedure, shortened: as §2

MIC (Aspergillus flavus [1]) [µg/mL] | MIC [2] [µg/mL] | MIC [3] [µg/mL] | Compound | MIC grade, A. flavus (Aspergillus flavus [1]) | MIC grade, A. fumigatus 210 [2] | MIC grade, A. fumigatus [3] | MIC grade, A. niger (Aspergillus niger [4]) | MIC grade, A. terreus 49 (Aspergillus terreus AT49 [5]) | MIC grade, A. terreus (Aspergillus terreus AT4 [6]) | MIC grade, A. flavus (Aspergillus flavus [7]) | MIC grade, A. fumigatus 210 [8] | MIC grade, A. fumigatus [9] | MIC grade, A. niger (Aspergillus niger [10]) | MIC grade, A. terreus 49 (Aspergillus terreus AT49 [11]) | MIC grade, A. terreus (Aspergillus terreus AT4 [12]) | Candida MIC, C. albicans (Candida albicans) | Candida MIC, C. glabrata (Candida glabrata) | Candida MIC, C. krusei (Candida krusei) | Candida MIC, C. parapsilosis (Candida parapsilosis) | Candida MIC, C. tropicalis (Candida tropicalis) | other results
 |  |  | COC(=O)Cn1ccc(C(C)C)c1C(=O)C(=O)Nc1ccc(N2CCN(c3cc(C)cc(C)n3)CC2)cc1 [Example 88] | 1 (a grade of 1 represents an MIC of greater than 10 mg/L) | 3 (A grade of 3 represents an MIC of less than 1 mg/L) | 3 (A grade of 3 represents an MIC of less than 1 mg/L) | 2 (A grade of 2 represents an MIC of from 1 to 10 mg/L) | 1 (a grade of 1 represents an MIC of greater than 10 mg/L) | 2 (A grade of 2 represents an MIC of from 1 to 10 mg/L) | 1 (a grade of 1 represents an MIC of greater than 10 mg/L) | 3 (A grade of 3 represents an MIC of less than 1 mg/L) | 3 (A grade of 3 represents an MIC of less than 1 mg/L) | 2 (A grade of 2 represents an MIC of from 1 to 10 mg/L) | 1 (a grade of 1 represents an MIC of greater than 10 mg/L) | 1 (a grade of 1 represents an MIC of greater than 10 mg/L) | 2 (A grade of 2 represents an MIC of from 1 to 10 mg/L) | 3 (A grade of 3 represents an MIC of less than 1 mg/L) | 3 (A grade of 3 represents an MIC of less than 1 mg/L) | 3 (A grade of 3 represents an MIC of less than 1 mg/L) | 3 (A grade of 3 represents an MIC of less than 1 mg/L) | 
< 1 | < 1 | < 1 | COCCn1c(C)cc(-c2ccccc2)c1C(=O)C(=O)Nc1ccc(N2CCN(CC(C)(C)C)CC2)cc1F [Example 113, N-{4-[4-(2,2-Dimethyl-propyl)-piperazin-1-yl]-2-fluoro-phenyl}-2-[1-(2-methoxy-ethyl)-5-methyl-3-phenyl-1H-pyrrol-2-yl]-2-oxo-acetamide] |  |  |  |  |  |  |  |  |  |  |  |  |  |  |  |  |  | MIC (Aspergillus niger [4]): < 1 µg/mL; MIC (Aspergillus terreus AT49 [5]): < 1 µg/mL; MIC (Aspergillus terreus AT4 [6]): < 1 µg/mL; MIC (Aspergillus flavus [7]): 1 to 10 µg/mL (≈ 1.87 to 18.7 µM); MIC [8]: < 1 µg/mL; MIC [9]: 1 to 10 µg/mL (≈ 1.87 to 18.7 µM); MIC (Aspergillus niger [10]): < 1 µg/mL; MIC (Aspergillus terreus AT49 [11]): 1 to 10 µg/mL (≈ 1.87 to 18.7 µM); MIC (Aspergillus terreus AT4 [12]): < 1 µg/mL; MIC (Candida albicans): < 1 µg/mL; MIC (Candida glabrata): < 1 µg/mL; MIC (Candida krusei): < 1 µg/mL; MIC (Candida parapsilosis): < 1 µg/mL; MIC (Candida tropicalis): < 1 µg/mL
 |  |  | COC(=O)Cn1ccc(-c2cccs2)c1C(=O)C(=O)Nc1ccc(N2CCN(c3cc(C)cc(C)n3)CC2)cc1 [Example 87, (2-{4-[4-(4,6-Dimethyl-pyridin-2-yl)-piperazin-1-yl]-phenylaminooxalyl}-3-thiophen-2-yl-pyrrol-1-yl)-acetic acid methyl ester] | 1 (a grade of 1 represents an MIC of greater than 10 mg/L) | 3 (A grade of 3 represents an MIC of less than 1 mg/L) | 3 (A grade of 3 represents an MIC of less than 1 mg/L) | 3 (A grade of 3 represents an MIC of less than 1 mg/L) | 3 (A grade of 3 represents an MIC of less than 1 mg/L) | 2 (A grade of 2 represents an MIC of from 1 to 10 mg/L) | 1 (a grade of 1 represents an MIC of greater than 10 mg/L) | 3 (A grade of 3 represents an MIC of less than 1 mg/L) | 3 (A grade of 3 represents an MIC of less than 1 mg/L) | 3 (A grade of 3 represents an MIC of less than 1 mg/L) | 2 (A grade of 2 represents an MIC of from 1 to 10 mg/L) | 2 (A grade of 2 represents an MIC of from 1 to 10 mg/L) | 2 (A grade of 2 represents an MIC of from 1 to 10 mg/L) | 3 (A grade of 3 represents an MIC of less than 1 mg/L) | 2 (A grade of 2 represents an MIC of from 1 to 10 mg/L) | 3 (A grade of 3 represents an MIC of less than 1 mg/L) | 3 (A grade of 3 represents an MIC of less than 1 mg/L) | 
 |  |  | COCCn1c(C)cc(-c2ccccc2)c1C(=O)C(=O)Nc1ccc(N2CCN(c3ccc(CN4CCOCC4)cn3)CC2)cc1 [Example 103, 2-[1-(2-Methoxy-ethyl)-5-methyl-3-pheny-1H-pyrrol-2-yl]-N-{4-[4-(5-morpholin-4-ylmethyl-pyridin-2-yl)-piperazin-1-yl]-phenyl}-2-oxo-acetamide] | 1 (a grade of 1 represents an MIC of greater than 10 mg/L) | 3 (A grade of 3 represents an MIC of less than 1 mg/L) | 3 (A grade of 3 represents an MIC of less than 1 mg/L) | 1 (a grade of 1 represents an MIC of greater than 10 mg/L) | 2 (A grade of 2 represents an MIC of from 1 to 10 mg/L) | 2 (A grade of 2 represents an MIC of from 1 to 10 mg/L) | 1 (a grade of 1 represents an MIC of greater than 10 mg/L) | 2 (A grade of 2 represents an MIC of from 1 to 10 mg/L) | 2 (A grade of 2 represents an MIC of from 1 to 10 mg/L) | 3 (A grade of 3 represents an MIC of less than 1 mg/L) | 2 (A grade of 2 represents an MIC of from 1 to 10 mg/L) | 2 (A grade of 2 represents an MIC of from 1 to 10 mg/L) | 3 (A grade of 3 represents an MIC of less than 1 mg/L) | 3 (A grade of 3 represents an MIC of less than 1 mg/L) | 3 (A grade of 3 represents an MIC of less than 1 mg/L) | 3 (A grade of 3 represents an MIC of less than 1 mg/L) | 3 (A grade of 3 represents an MIC of less than 1 mg/L) | 
1 to 10 (≈ 1.84 to 18.4 µM) | < 1 | < 1 | COCCn1ccc(-c2ccsc2)c1C(=O)C(=O)Nc1ccc(N2CCN(c3cc(C)cc(C)n3)CC2)cc1 [Example 72, N-{4-[4-(4,6-Dimethyl-pyridin-2-yl)-piperazin-1-yl]-phenyl}-2-[1-(2-methoxy-ethyl)-3-thiophen-3-yl-1H-pyrrol-2-yl]-2-oxo-acetamide] |  |  |  |  |  |  |  |  |  |  |  |  |  |  |  |  |  | MIC (Aspergillus niger [4]): < 1 µg/mL; MIC (Aspergillus terreus AT49 [5]): < 1 µg/mL; MIC (Aspergillus terreus AT4 [6]): < 1 µg/mL; MIC (Aspergillus flavus [7]): 1 to 10 µg/mL (≈ 1.84 to 18.4 µM); MIC [8]: 1 to 10 µg/mL (≈ 1.84 to 18.4 µM); MIC [9]: 1 to 10 µg/mL (≈ 1.84 to 18.4 µM); MIC (Aspergillus niger [10]): 1 to 10 µg/mL (≈ 1.84 to 18.4 µM); MIC (Aspergillus terreus AT49 [11]): 1 to 10 µg/mL (≈ 1.84 to 18.4 µM); MIC (Aspergillus terreus AT4 [12]): 1 to 10 µg/mL (≈ 1.84 to 18.4 µM); MIC (Candida albicans): < 1 µg/mL; MIC (Candida glabrata): < 1 µg/mL; MIC (Candida krusei): 1 to 10 µg/mL (≈ 1.84 to 18.4 µM); MIC (Candida parapsilosis): < 1 µg/mL; MIC (Candida tropicalis): < 1 µg/mL
